Patent US20230293614A1, “COMPOSITIONS AND METHODS OF TREATING UPS-ASSOCIATED DISEASES” (Board of Supervisors of Louisiana State University and …, priority 2020, published 2023)

Tests used:
[1] = system: deubiquitinating enzymes (DUBs); assay: DUB activity (Z-LRGG-AMC cleavage) in lysates of treated OPM2 cells; format: cell-based; conditions: for Vmax / effect on DUB activity vs DMSO control / Km / n (Hill coefficient): 16 h; for effect of increasing concentration on DUB activity (normalized Vmax): 1, 10, 30 μg/mL, regression fit
Procedure: (§1) OPM2 cells were maintained in RPMI 1640 media supplemented with 12% FBS, 21.8 mM glucose, 8.6 mM HEPES (pH 7.4) and 1.0 mM sodium pyruvate. MM.1S cell line were maintained in RPMI 1640 media supplemented with 10% FBS. The cells were all cultured in T175 flasks (VWR, Radnor, Pa.). All media components were from Corning, Atlanta, Ga. unless otherwise noted. To test the effect of the ethanolic extract and bioactive compounds on DUB activity, cells were exposed to a 16-h pretreatment with 10 μg/mL of PMI-5011 and 1, 10, 30 μg/mL concentrations of DMC-1, DMC-2, KOE, and davidigenin before lysing the cells for experimentation. All compounds were reconstituted in DMSO to obtain stock concentrations, which was further diluted in culture media to obtain the desired experimental concentrations. For vehicle control, a subpopulation of cells was treated with pure DMSO diluted in a similar manner for the same duration. Upon treatment, cell lysates (both OPM2 and MM.1S) were generated by harvesting 1×10^6 cells/mL, followed by washing 2× and pelleting in phosphate buffered saline (PBS; 137 mM NaCl, 10 mM Na2HPO4, […], and 1.75 mM KH2PO4 at pH 7.4). The cell pellet was re-suspended in an approximately equivalent volume of M-PER to the volume of the cell pellet (1000-2000 μL) then vortexed for 10 min at room temperature. Following this, the mixture was centrifuged at 14,000×g for 15 min at 4° C. and the supernatant transferred to a centrifuge tube and stored on ice until use. Total protein concentration was determined using a NanoDrop 2000c (Thermo Scientific, Madison, Wis.).
(§2) The commercial DUB reporter, Z-LRGG-AMC (substrate) (SEQ ID NO: 1) was reconstituted in DMSO to obtain a final stock concentration of 1.44 mM. This stock reporter was diluted as needed in assay buffer (50 mM HEPES, pH 7.4, 150 mM NaCl, 2 mM DTT, and 0.02% Tween-20) supplemented with 4 mg/mL cell lysates (source of DUBs) to reach the desired reporter concentration with a final volume of 100 μL in a 96-well plate. OPM2 and MM.1S cell lysates from different treatments (10 μg/mL of PMI-5011; 1, 10, and 30 μg/mL of DMC-1, DMC-2, KOE, davidigenin and control vehicle DMSO) and C2C12 cell lysates were used to interrogate the effect of the ethanolic extract and selected bioactive compounds on DUB activity. Reporter only and lysates only (noise/background) samples were included in the 96-well plate to confirm that the rates observed were due to DUB-mediated hydrolysis initiated by the cell lysates. The 96-well plate was maintained at a temperature of 30° C. in the dark for the duration of the experiment. The fluorescence signals emitted as a result of DUB-mediated cleavage of AMC (λex=355 nm and λem=460 nm) were quantified using a Wallac 1420 VICTOR2 multilabel HTS counter fluorometry (Perkin Elmer (Waltham, Mass.). Readings were collected every 30 min for 6 h. The normalized signals were obtained by comparing the treatment with noise and background fluorescence values which were then statistically analyzed for their significance. Each data point represents triplicate data points from duplicate experiments. A calibration curve was generated for known concentrations of AMC to correlate the fluorescence signal (AU) to concentration (μM). The approximate concentration of free fluorophore was used to calculate reaction rates (μM/min) for each substrate concentration using linear regression analysis.
(§3) All data visualization, interpretation and curve-fittings were performed using Origin Pro (OriginLab, Northampton, MA) while statistical analyses of experimental data were carried out using SAS 9.4 (SAS Solutions). The analyses of enzyme-substrate reactions in all cell lysates started with scatter plotting the fluorometry signals (p,M) measured for each substrate concentration against time (min). Fluorescence signals measured for each substrate concentration remained stable during the first 30 min, indicating there was a 30-minute lag period before reaction initiation. […]

[2] = system: deubiquitinating enzymes (DUBs); assay: DUB activity (Z-LRGG-AMC cleavage) in lysates of treated MM.1S cells; format: cell-based; conditions: for Vmax / effect on DUB activity vs DMSO control / Km / n (Hill coefficient): 16 h; for effect of increasing concentration on DUB activity (normalized Vmax): 1, 10, 30 μg/mL, regression fit
Procedure: as §1, §2, §3

[3] = MTT cellular viability assay, MM.1S; format: cell-based; conditions: human, MM.1S cells, read-out: percentage of viable cells
Procedure: (§4) The effect of PMI-5011 and bioactive compounds on the viability of cells was tested using a standard colorimetric MTT assay. The MTT Cell Proliferation Assay Kit was purchased from VWR, Radnor, Pa. MM.1S and OPM2 cells were treated with 10 μg/mL of PMI-5011 and 1, 10, and 30 μg/mL of DMC-1, DMC-2, KOE and davidigenin and plated at a density of 10^6 cells/mL in a 96-well plate with each well containing 250 μL of the sample. The plated cells were then incubated at 37° C. for 16 h. 10 μg/mL for PMI-5011 and a 16-h treatment period was used in this study based on previous findings by Yu et al.^24 Parallel plates were prepared for positive and negative solvent vehicle control with the same volume of DMSO and ethanol as for the treated cells. On the day of the experiment, the 96-well plates were centrifuged at 1000×g at 4° C. for 5 min in a microplate compatible centrifuge. The media was discarded and 50 μL of serum-free media and 50 μL of the MTT reagent were added into each well. For a background control, 50 μL of the MTT reagent was added into a well containing media only (no cells). The plate was incubated at 37° C. for 3 h in the dark. After incubation, 150 μL of the MTT solvent was added into each well. The plate was wrapped in a foil and placed on an orbital shaker for 15 min. Finally, the absorbance was measured at λex=544 nm and λem=590 nm using a Wallac 1420 VICTOR2 multilabel HTS counter fluorometry (Perkin Elmer (Waltham, Mass.). The percentage viable cells was obtained by Eq. 1.
(§5) % Viable Cells=S-N/C-N×100 (Eq. 1)
(§6) Where, S denotes raw absorbance values from samples, N denotes average absorbance value of the background control and C denotes the highest average absorbance value of positive vehicle control. The obtained percentage cytotoxicity values were then statistically analyzed for their significance. Each data point represents triplicate data points from duplicate experiments. The effect of PMI-5011 and the selected bioactive compounds on C2C12 cell viability has previously been reported.^24

[4] = MTT cellular viability assay, OPM2; format: cell-based; conditions: human, OPM2 cells, read-out: percentage of viable cells
Procedure: as §4, §5, §6

DUB = assay: Experiment 2: DUB reporter Z-LRGG-AMC with control, 5011, IU1 and KOE lysates; format: biochemical; conditions: lysate 4 mg/mL
Procedure: Peptide used was the commercial DUB reporter [Z-LRGG-AMC (SEQ ID NO: 1)] at multiple concentration [50-150 um]. 640 μL protein at 10 mg/mL for each set was given. Final protein concentration in micro-wells was 4 mg/mL. Peptide was incubated with control, 5011 treated, 25 uM IU1, 50 uM IU1 and KOE in DUB assay buffer. Fluorometric readings were taken at different time points in plate reader. Measured at [Em 460/Ex 355]. Fluorescent signals were converted to μM/min using a calibration curve for the AMC fluorophore. Rates were plotted vs. substrate concentration (Z-LRGG-AMC peptide (SEQ ID NO: 1)) (FIG. 7).

[5] = Table 2, OPM-2, 1 μg/mL, in µM/min
[6] = Table 2, OPM-2, 10 μg/mL, in µM/min
[7] = Table 2, OPM-2, 30 μg/mL, in µM/min

Row | SMILES | Vmax ([1]; OPM2, 1 μg/mL) [µM/min] | effect on DUB activity vs DMSO control ([1]; OPM2, 1 μg/mL) | Vmax ([1]; OPM2, 10 μg/mL) [µM/min] | effect on DUB activity vs DMSO control ([1]; OPM2, 10 μg/mL) | Vmax ([1]; OPM2, 30 μg/mL) [µM/min] | effect on DUB activity vs DMSO control ([1]; OPM2, 30 μg/mL) | effect of increasing concentration on DUB activity (normalized Vmax) ([1]; OPM2) | Km ([1]; Table 2, OPM-2, 1 μg/mL) [µM] | n (Hill coefficient) ([1]; Table 2, OPM-2, 1 μg/mL) | Vmax [1, 5] | Km ([1]; Table 2, OPM-2, 10 μg/mL) [µM] | n (Hill coefficient) ([1]; Table 2, OPM-2, 10 μg/mL) | Vmax [1, 6] | Km ([1]; Table 2, OPM-2, 30 μg/mL) [µM] | n (Hill coefficient) ([1]; Table 2, OPM-2, 30 μg/mL) | Vmax [1, 7] | Vmax ([2]; 1 μg/mL) [µM/min] | effect on DUB activity vs DMSO control ([2]; 1 μg/mL) | Vmax ([2]; 10 μg/mL) [µM/min] | effect on DUB activity vs DMSO control ([2]; 10 μg/mL) | other results
1 | COc1ccc(C(=O)CCc2ccc(O)cc2)c(O)c1 [DMC-1, 1-(2-hydroxy-4-methoxyphenyl)-3-(4-hydroxyphenyl)propan-1-one] | 33.06 ± 5.08 | significantly inhibiting | 27.93 ± 4.80 | significantly inhibiting | 233.44 ± 27.31 | significantly enhanced | exponential increase | 61.4 | 1.29 | 33.06± | 46.3 | 1.40 | 27.93 | 140 | 0.93 | 233.44 | 7.03 ± 1.10 | significantly inhibiting | 9.19 ± 0.78 | significantly inhibiting | Vmax ([2]; 30 μg/mL): 12.91 ± 1.45 µM/min; effect on DUB activity vs DMSO control ([2]; 30 μg/mL): significantly enhanced; effect of increasing concentration on DUB activity (normalized Vmax) [2]: positive linear effect; Km ([2]; Table 2, 1 μg/mL): 21 µM; Vmax ([2]; Table 2, 1 μg/mL): 0.00703 µM/min; n (Hill coefficient) ([2]; Table 2, 1 μg/mL): 1.33; Km ([2]; Table 2, 10 μg/mL): 26 µM; Vmax ([2]; Table 2, 10 μg/mL): 0.00919 µM/min; n (Hill coefficient) ([2]; Table 2, 10 μg/mL): 1.64; Km ([2]; Table 2, 30 μg/mL): 29.3 µM; Vmax ([2]; Table 2, 30 μg/mL): 0.0129 µM/min; n (Hill coefficient) ([2]; Table 2, 30 μg/mL): 1.07; viability at 16 h, 1 μg/mL [3]: ~95%; viability at 16 h, 30 μg/mL [3]: ~55%; viability at 16 h, 1 μg/mL [4]: ~100%; viability at 16 h, 30 μg/mL [4]: ~60%
2 | O=C(CCc1ccc(O)cc1)c1ccc(O)cc1O [DVG, 1-(2,4-dihydroxyphenyl)-3-(4-hydroxyphenyl)propan-1-one] | 23.32 ± 1.58 | significantly enhanced | 24.76 ± 1.84 | significantly enhanced | 315.24 ± 41.65 | significantly enhanced | exponential increase | 56.4 | 0.82 | 23.32 | 45.5 | 1.78 | 24.76 | 89.4 | 1.34 | 315.24 | 12.72 ± 0.78 | significantly enhanced | 12.23 ± 1.30 | significantly enhanced | effect on DUB activity (summary) ([1]; OPM2): enhance; effect on DUB activity (summary) [2]: inhibit; Vmax ([2]; 30 μg/mL): 6.48 ± 0.54 µM/min; effect on DUB activity vs DMSO control ([2]; 30 μg/mL): significantly inhibited; effect of increasing concentration on DUB activity (normalized Vmax) [2]: negative linear effect; Km ([2]; Table 2, 1 μg/mL): 30.2 µM; Vmax ([2]; Table 2, 1 μg/mL): 0.0127 µM/min; n (Hill coefficient) ([2]; Table 2, 1 μg/mL): 2.01; Km ([2]; Table 2, 10 μg/mL): 39.2 µM; Vmax ([2]; Table 2, 10 μg/mL): 0.0122 µM/min; n (Hill coefficient) ([2]; Table 2, 10 μg/mL): 1.92; Km ([2]; Table 2, 30 μg/mL): 38.4 µM; Vmax ([2]; Table 2, 30 μg/mL): 0.00648 µM/min; n (Hill coefficient) ([2]; Table 2, 30 μg/mL): 1.51; viability at 16 h, 1 μg/mL [3]: ~105%; viability at 16 h, 30 μg/mL [3]: ~80%; viability at 16 h, 1 μg/mL [4]: ~90%; viability at 16 h, 30 μg/mL [4]: ~60%
3 | Cc1cc(C(=O)CN2CCCC2)c(C)n1-c1ccc(F)cc1 [IU1] | – | – | – | – | – | – | – | – | – | – | – | – | – | – | – | – | – | – | – | – | effect on DUB activity vs control (DUB; 25 μM): inhibit; effect on DUB activity vs control (DUB; 50 μM): inhibit
